Assay results: the supplement of paper PMC4862054

How the values were obtained:
Details in all cases: incubation time: 72 h
HCC1599 [1] = experiment: normalised response (% of control), CellTox Green; higher = less cell death (100 = DMSO, 0 = benzethonium chloride kill control)
Summary of the method: (§1)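 Compound was dispensed into 384-well plates at 5 concentrations in 10-fold steps spanning a 10,000-fold range specific to that compound. Breast cancer cell lines were added as 20 µl suspension and left for 72 h before CellTox Green fluorescence (485/520 nm) and then CellTiter-Glo luminescence, read after 10 min at room temperature. Each reported value is the normalised signal at one concentration, with 0.1 % DMSO set at 100 and a positive kill control at 0 on each plate.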

CAL-120 [2] = experiment: as above
Summary of the method: as §1

HDQ-P1 [3] = experiment: as above
Summary of the method: as §1

DU-4475 [4] = experiment: as above
Summary of the method: as §1

MCF-10A [5] = experiment: as above
Summary of the method: as §1

BT-549 [6] = experiment: as above
Summary of the method: as §1

MDA-MB-468 [7] = experiment: as above
Summary of the method: as §1

CAL-148 [8] = experiment: as above
Summary of the method: as §1

MFM-223 [9] = experiment: as above
Summary of the method: as §1

MDA-MB-453 [10] = experiment: as above
Summary of the method: as §1

HCC1937 [11] = experiment: as above
Summary of the method: as §1

HCC1143 [12] = experiment: as above
Summary of the method: as §1

MDA-MB-231 [13] = experiment: as above
Summary of the method: as §1

CAL-51 [14] = experiment: as above
Summary of the method: as §1

BT-474 [15] = experiment: as above
Summary of the method: as §1

CAL-85-1 [16] = experiment: as above
Summary of the method: as §1

Hs578T [17] = experiment: as above
Summary of the method: as §1

HCC1599 [18] = experiment: normalised response (% of control), CellTiter-Glo; higher = more viable cells (100 = DMSO, 0 = benzethonium chloride kill control)
Summary of the method: as §1

CAL-120 [19] = experiment: as above
Summary of the method: as §1

HDQ-P1 [20] = experiment: as above
Summary of the method: as §1

SK-BR-3 = experiment: as above
Summary of the method: as §1

DU-4475 [21] = experiment: as above
Summary of the method: as §1

MCF-10A [22] = experiment: as above
Summary of the method: as §1

BT-549 [23] = experiment: as above
Summary of the method: as §1

MDA-MB-468 [24] = experiment: as above
Summary of the method: as §1

CAL-148 [25] = experiment: as above
Summary of the method: as §1

MFM-223 [26] = experiment: as above
Summary of the method: as §1

MDA-MB-453 [27] = experiment: as above
Summary of the method: as §1

HCC1937 [28] = experiment: as above
Summary of the method: as §1

HCC1143 [29] = experiment: as above
Summary of the method: as §1

MDA-MB-231 [30] = experiment: as above
Summary of the method: as §1

CAL-51 [31] = experiment: as above
Summary of the method: as §1

BT-474 [32] = experiment: as above
Summary of the method: as §1

CAL-85-1 [33] = experiment: as above
Summary of the method: as §1

Hs578T [34] = experiment: as above
Summary of the method: as §1

MDA-MB-436 [35] = experiment: as above
Summary of the method: as §1

MDA-MB-436 [36] = experiment: normalised response (% of control), CellTox Green; higher = less cell death (100 = DMSO, 0 = benzethonium chloride kill control)
Summary of the method: as §1

Row | Compound | normalised response (HCC1599 [1]) [%] | normalised response (CAL-120 [2]) [%] | normalised response (HDQ-P1 [3]) [%] | normalised response (DU-4475 [4]) [%] | normalised response (MCF-10A [5]) [%] | normalised response (BT-549 [6]) [%] | normalised response (MDA-MB-468 [7]) [%] | normalised response (CAL-148 [8]) [%] | normalised response (MFM-223 [9]) [%] | normalised response (MDA-MB-453 [10]) [%] | normalised response (HCC1937 [11]) [%] | normalised response (HCC1143 [12]) [%] | normalised response (MDA-MB-231 [13]) [%] | normalised response (CAL-51 [14]) [%] | normalised response (BT-474 [15]) [%] | normalised response (CAL-85-1 [16]) [%] | normalised response (Hs578T [17]) [%] | normalised response (HCC1599 [18]) [%] | normalised response (CAL-120 [19]) [%] | normalised response (HDQ-P1 [20]) [%] | normalised response (SK-BR-3) [%] | normalised response (DU-4475 [21]) [%] | normalised response (MCF-10A [22]) [%] | normalised response (BT-549 [23]) [%] | normalised response (MDA-MB-468 [24]) [%] | normalised response (CAL-148 [25]) [%] | normalised response (MFM-223 [26]) [%] | normalised response (MDA-MB-453 [27]) [%] | normalised response (HCC1937 [28]) [%] | normalised response (HCC1143 [29]) [%] | normalised response (MDA-MB-231 [30]) [%] | normalised response (CAL-51 [31]) [%] | normalised response (BT-474 [32]) [%] | normalised response (CAL-85-1 [33]) [%] | normalised response (Hs578T [34]) [%] | normalised response (MDA-MB-436 [35]) [%] | normalised response (MDA-MB-436 [36]) [%]
1 | CN(C)CCN1C(=O)c2cccc3cc(N)cc(c23)C1=O [Amonafide] (1000 nM) | 102 | 98.9 | 106 | 96.7 | 100 | 130 | 52 | 93.9 | 97.3 | 106 | 116 | 100 | 122 | 106 | 99.3 | 100 | 113 | 106 | 96.2 | 102 | 89.5 | 87.1 | 92.2 | 97.2 | 91.6 | 87.2 | 101 | 107 | 89.9 | 97.6 | 95.6 | 113 | 87.5 | 93.6 | 93.6 | 95.2 | 
2 | Cc1ccc(NC(=O)c2ccc(CN3CCN(C)CC3)cc2)cc1Nc1nccc(-c2cccnc2)n1 [Imatinib] (1000 nM) | 104 | 106 |  | 101 | 101 | 121 | 137 | 101 | 105 | 103 |  | 113 | 107 | 103 | 98.8 | 110 | 104 | 101 | 108 | 101 | 105 | 105 | 111 | 106 | 99.9 | 103 | 104 | 111 | 93.6 | 99.2 | 106 | 96.3 | 102 | 104 | 105 | 102 | 
3 | Nc1nc(OCc2cc(Br)cs2)c2[nH]cnc2n1 [Lomeguatrib] (1000 nM) | 93.2 | 102 | 112 | 101 | 93.5 | 108 | 139 | 99.9 | 82.9 | 103 | 111 | 117 | 104 | 104 | 100 | 98.9 | 100 | 118 | 96.6 | 102 | 103 | 102 | 104 | 96.6 | 100 | 99.3 | 104 | 105 | 97.8 | 101 | 103 | 103 | 103 | 104 | 102 | 97.6 | 
4 | CN(C)C[C@@H]1CCn2cc(c3ccccc32)C2=C(C(=O)NC2=O)c2cn(c3ccccc23)CCO1 [Ruboxistaurin] (1 nM) |  |  |  |  |  |  |  |  |  |  |  |  |  |  |  |  |  | 99.2 | 90.3 | 101 | 98.4 | 99.8 | 106 | 96.9 | 106 | 97.7 | 98.6 | 98.9 | 94.6 | 94.4 | 97.9 | 129 | 95.3 | 96.7 | 96.7 | 105 | 
5 | COc1ccc(-c2ccc3c(N4CCOC[C@@H]4C)nc(N4CCOC[C@@H]4C)nc3n2)cc1CO [AZD8055] (10 nM) |  |  |  |  |  |  |  |  |  |  |  |  |  |  |  |  |  | 98.3 | 81.1 | 74.6 | 53.5 | 92 | 87 | 77.9 | 80.1 | 82.5 | 77.8 | 79.3 | 84.2 | 86.8 | 88 | 92.8 | 84.8 | 85.4 | 92.2 | 76.5 | 
6 | CCCCCCCCc1ccc(CCC(N)(CO)CO)cc1 [Fingolimod] (1000 nM) | 106 | 99.4 | 89 | 103 | 57.9 | 131 | 160 | 107 | 102 | 103 |  | 111 | 122 | 106 | 103 | 101 | 106 | 114 | 96.1 | 103 | 102 | 100 | 103 | 99.3 | 98.1 | 101 | 107 | 102 | 103 | 101 | 94.3 | 80.5 | 94.6 | 103 | 99.9 | 103 | 90.6
7 | Cn1cncc1[C@@](N)(c1ccc(Cl)cc1)c1ccc2c(c1)c(-c1cccc(Cl)c1)cc(=O)n2C [Tipifarnib] (10 nM) |  |  |  |  |  |  |  |  |  |  |  |  |  |  |  |  |  | 94.3 | 93.1 | 87.7 | 85.1 | 102 | 92.3 | 98.9 | 94 | 96.7 | 95.2 | 84.6 | 82.3 | 101 | 98.6 | 121 | 94.4 | 108 | 95.8 | 88.7 | 
8 | CO[C@H]1C[C@@H]2CC[C@@H](C)[C@@](O)(O2)C(=O)C(=O)N2CCCC[C@H]2C(=O)O[C@H]([C@H](C)C[C@@H]2CC[C@@H](OCCO)[C@H](OC)C2)CC(=O)[C@H](C)/C=C(\C)[C@@H](O)[C@@H](OC)C(=O)[C@H](C)C[C@H](C)/C=C/C=C/C=C/1C [Everolimus] (0.1 nM) |  |  |  |  |  |  |  |  |  |  |  |  |  |  |  |  |  | 90.5 | 95.9 | 94.4 | 92 | 95 | 96 | 88 | 84.8 | 80.7 | 88.4 | 95.8 | 88 | 92 | 99.2 | 115 | 92 | 90 | 89.5 | 90.7 | 
